Experimental data: patent US20070167408A1, “NOVEL ALKYL PHOSPHOLIPID DERIVATIVES WITH REDUCED CYTOTOXICITY AND USES THEREOF” (ZENTARIS GmbH, priority 2005, published 2007)
In brackets after ≈: the same amount, converted by molar mass. Where two headings read alike, the source gives them in different places.

Assays:
[1] = system: RKOp21 (human colon adenocarcinoma) cells; assay: XTT cytotoxicity assay, RKOp21 cells; type: cell-based; settings: for RKOp21 % INH [31.6 μM]: second set of experiments; for IC50: XTT, 48 h exposure, read-out: RKOp21 [IC50 (μM)]
Method: (§1) Cytotoxicity of selected compounds of the invention against different mammalian cell lines was assessed as follows.
(§2) Human tumor cell lines KB/HeLa (ATCC CCL17, human cervix carcinoma), PC3 (ATCC CRL1435, human prostate carcinoma) and RKOp21 (human colon adenocarcinoma; Schmidt et al., Oncogene 2000, 19: 2423-2429) cells were used in an automated XTT screening assay for the assessment of cytotoxicity.
(§3) The XTT assay quantifies cellular metabolic activity which correlates with cell viability and cell number. Test compounds (selected compounds of the invention and known substances as controls) are dissolved in culture medium at 600 μM and added to the tumor cells in 10 different concentrations in a semi-logarithmic fashion starting from 100 μM as highest concentration.
(§4) In a second set of experiments employing PC3, RKOp21 and SKOV-3 (ATCC HTB-77, human ovary adenocarcinoma) cells, test and reference compounds were dissolved in 70% Ethanol/30% H2O in a stock concentration of 10 mM and diluted in cell culture medium to yield either 31.6 μM (PC3 and RKOp21) or 100 μM (SKOV-3) final concentration.
(§5) 48 h later cellular metabolic activity of cells treated with test compounds is quantified by measurement of the absorbance at 490 nm (conversion of XTT dye) in comparison to untreated control cells (100% viability).
(§6) KB/HeLa and PC3 cells were cultivated in RPMI 1640 medium (Gibco, Cat. No. 42401-018) supplemented with 10% heat inactivated fetal calf serum (FCS, Biochrom AG, Cat. No. S0115), 2 mM L-glutamine (Gibco, Cat. No. 25030-24) and 2% Penicillin-Streptomycin (PenStrep, Gibco, Cat. No. 15140-122). RKOp21 cells were grown in DMEM+GlutaMAXTM-I medium (Gibco, Cat. No. 61965-026) supplemented with 10% heat inactivated fetal calf serum (FCS, Biochrom AG, Cat. No. S0115), 2 mM L-glutamine (Gibco, Cat. No. 25030-24), 2% Penicillin-Streptomycin (PenStrep, Gibco, Cat. No. 15140-122) and 1% 1M HEPES (Gibco, Cat. No. 15630-056). All cells were cultured at 37° C. in 5% CO2 humidified air.
(§7) On the first day of the experiment cells were harvested from exponential phase cultures by trypsination, counted and plated into 96 well flat-bottom micro titer plates depending on the cell line as listed below:
(§8) After a 24 h recovery to allow the cells to resume exponential growth, the test compounds were diluted immediately prior to use and transferred in 25 μl volume to the wells.
(§9) Following 2 days of continuous drug exposure 50 μl of freshly prepared XTT-PMS solution {2% 0.386 mg/ml PMS (N-Methyl Dibenzopyrazine Methylsulphate; Sigma, Cat. No. P9625) in PBS+98% 1 mg/ml XTT (Sodium 2,3-bis(2-methoxy-4-nitro-5-sulfophenyl)-5-[(phenylamino)carbonyl]-2H-Tetrazolium; Serva, Cat. No. 38450) in RPMI 1640 medium without phenol red} was added to the wells. To measure the proportion of living cells, the cells were incubated for 3 h with XTT-PMS reagent at 37° C., 5% CO2, humidified atmosphere allowing to form the formazan salt. The amount of soluble formazan salt produced by cellular reduction of XTT is quantified by measuring the absorbance at 490 nm using the Biomek® 2000 ELISA plate reader. %-inhibition (cytotoxicity) of each test compound was calculated in relation to untreated control cells. Inhibition curves were generated and IC50 values calculated by using GraphPad Prism.

[2] = system: SKOV-3 (human ovary adenocarcinoma) cells; assay: XTT cytotoxicity assay, SKOV-3 cells; type: cell-based; settings: second set of experiments
Method: On the first day of the experiment cells were harvested from exponential phase cultures by trypsination, counted and plated into 96 well flat-bottom micro titer plates depending on the cell line as listed below: [table] After a 24 h recovery to allow the cells to resume exponential growth, the test compounds were diluted immediately prior to use and transferred in 25 μl volume to the wells. Following 2 days of continuous drug exposure 50 μl of freshly prepared XTT-PMS solution {2% 0.386 mg/ml PMS (N-Methyl Dibenzopyrazine Methylsulphate; Sigma, Cat. No. […] Serva, Cat. No. 38450) in RPMI 1640 medium without phenol red} was added to the wells. To measure the proportion of living cells, the cells were incubated for 3 h with XTT-PMS reagent at 37° C., 5% CO2, humidified atmosphere allowing to form the formazan salt. […] Inhibition curves were generated and IC50 values calculated by using GraphPad Prism.

[3] = system: PC3 (human prostate carcinoma) cells; assay: XTT cytotoxicity assay, PC3 cells; type: cell-based; settings: for PC3 % INH [31.6 μM]: second set of experiments; for IC50: XTT, 48 h exposure, read-out: PC3 [IC50 (μM)]
Method: as §1, §2, §3, §4, §5, §6, §7, §8, §9

[4] = system: PC3, RKOp21 and SKOV-3 cell lines; assay: XTT cytotoxicity assay, mean over all three cell lines; type: cell-based, human; settings: mean value over all three cell lines
Method: Following 2 days of continuous drug exposure 50 μl of freshly prepared XTT-PMS solution {2% 0.386 mg/ml PMS (N-Methyl Dibenzopyrazine Methylsulphate; Sigma, Cat. No. […] Serva, Cat. No. 38450) in RPMI 1640 medium without phenol red} was added to the wells. To measure the proportion of living cells, the cells were incubated for 3 h with XTT-PMS reagent at 37° C., 5% CO2, humidified atmosphere allowing to form the formazan salt. […] Inhibition curves were generated and IC50 values calculated by using GraphPad Prism. In the following table 7 cytotoxicity results (% inhibition of cell growth) obtained in the second set of experiments for selected compounds of the invention are presented in comparison to examples of the prior art (perifosine, miltefosine). The results presented are individual values for the respective cell line as well as the mean value over all three cell lines tested.

[5] = system: KB/HeLa (human cervix carcinoma) cells; assay: XTT cytotoxicity assay, KB/HeLa cells; type: cell-based; settings: XTT, 48 h exposure, read-out: KB/HELA [IC50 (μM)]
Method: as §1, §2, §3, §5, §6, §7, §8, §9

[6] = system: Moraxella catarrhalis DMS 11994 (ATCC 43617); assay: Anti-bacterial bouillon microdilution assay (MIC), bacterium D; type: cell-based; settings: ATCC43617, 24 h
Method: Selected compounds of the invention were tested in a bouillon microdilution assay method according to the DIN 58940 (www.din.de) guidelines for determination of susceptibility of bacterial strains with regard to cell growth inhibition. The assay method quantifies bacterial cell growth which corresponds to the turbidity of the liquid culture medium by photometric measurement carried out at 595 nm.
The method of MIC determination was performed according to DIN 58940-5. The volumina were adapted according to the microdilution method as described in DIN 58940-7 guideline.
Dependent on water solubility, compounds of the invention were dissolved either in water or ethanol in a concentration of 10 mg/ml. Subsequently, the stock was further diluted in water to a concentration of 512 μg/ml. The following serial dilutions (factor 2) were performed in water resulting in the following […] testing concentrations: 256 μg/ml, 128 μg/ml, 64 μg/ml, 32 μg/ml, 16 μg/ml, 8 μg/ml, 4 μg/ml, 2 μg/ml, 1 μg/ml, 0.5 μg/ml, 0.25 μg/ml and 0.125 μg/ml. Diluted compounds of the invention were transferred in 100 μl volume to the microtiter plate wells.
Pre-cultures of bacteria were grown in appropriate liquid media (refer to ATCC webpage, www.atcc.org) and afterwards were inoculated in corresponding liquid medium. 100 μl of the inoculums [adjusted to an amount of app. 1×10^6 microorganisms per ml (range of 10^5-10^8 microorganisms per ml)] were added to each of the testing compound concentrations and cultivated under the appropriate conditions.
Before and after incubation, bacterial growth was determined by photometric analysis against a positive control containing growing bacteria without compound and a sterile/negative control containing only the medium.

Structure (SMILES)	RKOp21 % INH [31.6 μM] [1]	SKOV-3 % INH [100 μM] [2]	PC3 % INH [31.6 μM] [3]	Mean % INH [4]	IC50 ([1]; Homo sapiens)	IC50 ([3]; Homo sapiens, PC-3)	IC50 ([5]; Homo sapiens, HeLa)	MIC [6]	IC50 [1]	IC50 [3]	IC50 [5]
CCCCCCCCCCCCCCCCOP(=O)([O-])OCCCC[N+](C)(C)C [Compound 314]	10.6%	33.2%	51.6%	31.8%	–	–	–	–	–	–	–
CCCCCCCCCCCCCCCCCCOP(=O)(O)OCCn1ccnc1 [Compound 67]	–	–	–	–	> 100 µM	> 100 µM	> 100 µM	8 µg/mL (≈ 18 µM)	–	–	–
CCCCCCCCCCOCCOCCOP(=O)([O-])OCC[N+]1(C)CCCCC1 [Compound 20]	−12.4%	−6.1%	13.4%	−1.7%	–	–	–	–	> 100 µM	> 100 µM	> 100 µM
CCCCCCCCC=CCCCCCCCCOP(=O)(O)OCCN1CCCCC1 [Compound 19]	53.4%	26.9%	16.2%	32.2%	–	–	–	–	> 100 µM	> 100 µM	> 100 µM
